Holding throughout (test): relative viability (nuclei count vs DMSO), 5 days (fraction); higher = more cells survive
Compound in the test “NVP-TAE684 + AZD7762”: COc1cc(N2CCC(N3CCN(C)CC3)CC2)ccc1Nc1ncc(Cl)c(Nc2ccccc2S(=O)(=O)C(C)C)n1 [NVP-TAE684] + NC(=O)Nc1cc(-c2cccc(F)c2)sc1C(=O)N[C@H]1CCCNC1 [AZD7762] (partner 0.2 µM)
The essentials:
(§1)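 Relative viability was taken as the ratio of nuclei in treated wells to nuclei in vehicle wells. Lung cancer cell lines in 1536-well plates received compounds by pin tool one day after seeding, either one drug alone or a fixed anchor-drug dose plus five library-drug doses (not always all listed) in √10 steps. Nuclei were counted on 4× images after 5 days of treatment, and values are medians of duplicate plates.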

Compound in the test “NVP-TAE684 + Trametinib”: COc1cc(N2CCC(N3CCN(C)CC3)CC2)ccc1Nc1ncc(Cl)c(Nc2ccccc2S(=O)(=O)C(C)C)n1 [NVP-TAE684] + CC(=O)Nc1cccc(-n2c(=O)n(C3CC3)c(=O)c3c(Nc4ccc(I)cc4F)n(C)c(=O)c(C)c32)c1 [Trametinib] (partner 0.02 µM)
In a few lines: as §1

Compound in the test “CUDC-101 + Decitabine”: C#Cc1cccc(Nc2ncnc3cc(OC)c(OCCCCCCC(=O)NO)cc23)c1 [CUDC-101] + Nc1ncn([C@H]2C[C@H](O)[C@@H](CO)O2)c(=O)n1 [Decitabine] (partner 2 µM)
The essentials:
as §1

Compound in the test “NVP-TAE684 + Vorinostat”: COc1cc(N2CCC(N3CCN(C)CC3)CC2)ccc1Nc1ncc(Cl)c(Nc2ccccc2S(=O)(=O)C(C)C)n1 [NVP-TAE684] + O=C(CCCCCCC(=O)Nc1ccccc1)NO [Vorinostat] (partner 1 µM)
In a few lines:
as §1

Compound in test [1]: C1=CC=C2C(=C1)N=C(S2)C(C#N)C3=NC(=NC=C3)NCCC4=CN=CC=C4 + NC(=O)Nc1cc(-c2cccc(F)c2)sc1C(=O)N[C@H]1CCCNC1 [AZD7762] (partner 0.2 µM)
In a few lines:
as §1

The source of these data is the supplement of paper PMC10307832.

Take 201T: the relative viability was found to be 0.669 with NVP-TAE684 + AZD7762 (first compound 0.2 µM); 0.79 with NVP-TAE684 + AZD7762 (first compound 0.6325 µM); 0.521 in the test with NVP-TAE684 + AZD7762 (first compound 2 µM); 0.712 with NVP-TAE684 + Trametinib (first compound 0.2 µM); 0.716 with NVP-TAE684 + Trametinib (first compound 0.6325 µM); 0.629 with NVP-TAE684 + Trametinib (first compound 2 µM). For the same cell line, the relative viability in the test with CUDC-101 + Decitabine (first compound 0.01 µM) worked out at 0.835; with CUDC-101 + Decitabine (first compound 0.03162 µM), 0.863; with CUDC-101 + Decitabine (first compound 0.1 µM), 0.844; with CUDC-101 + Decitabine (first compound 0.3162 µM) it was 0.842; with CUDC-101 + Decitabine (first compound 1 µM), 0.828; with NVP-TAE684 + Vorinostat (first compound 0.2 µM), 1.02. For the same cell line, the relative viability with NVP-TAE684 + Vorinostat (first compound 0.6325 µM) came out at 1; with NVP-TAE684 + Vorinostat (first compound 2 µM) it was 0.831; in test [1] (first compound 0.005 µM), 0.542; in test [1] (first compound 0.01581 µM) it was 0.674; in test [1] (first compound 0.05 µM), 0.69; in test [1] (first compound 0.1581 µM), 0.707. Moreover, the relative viability in test [1] (first compound 0.5 µM) stood at 0.56.
On to A549, for which the relative viability with CUDC-101 + Decitabine (first compound 0.01 µM) was 0.297; with CUDC-101 + Decitabine (first compound 0.03162 µM), 0.277; with CUDC-101 + Decitabine (first compound 0.1 µM), 0.218; with CUDC-101 + Decitabine (first compound 0.3162 µM) it was 0.286; in the test with CUDC-101 + Decitabine (first compound 1 µM), 0.276.
In the case of A-427, the relative viability with NVP-TAE684 + AZD7762 (first compound 0.2 µM) turned out to be 0.69; with NVP-TAE684 + AZD7762 (first compound 0.6325 µM) it was 0.528; with NVP-TAE684 + AZD7762 (first compound 2 µM), 0.366; with NVP-TAE684 + Trametinib (first compound 0.2 µM) it was 0.699; in the test with NVP-TAE684 + Trametinib (first compound 0.6325 µM) it was 0.627; in the test with NVP-TAE684 + Trametinib (first compound 2 µM), 0.462. Besides, the relative viability amounted to 0.617 with CUDC-101 + Decitabine (first compound 0.01 µM); 0.619 with CUDC-101 + Decitabine (first compound 0.03162 µM); 0.591 with CUDC-101 + Decitabine (first compound 0.1 µM); 0.568 in the test with CUDC-101 + Decitabine (first compound 0.3162 µM); 0.554 with CUDC-101 + Decitabine (first compound 1 µM); 0.908 in the test with NVP-TAE684 + Vorinostat (first compound 0.2 µM). Moreover, the relative viability with NVP-TAE684 + Vorinostat (first compound 0.6325 µM) was 0.848; with NVP-TAE684 + Vorinostat (first compound 2 µM), 0.738; in test [1] (first compound 0.005 µM), 0.816; in test [1] (first compound 0.01581 µM) it was 0.727; in test [1] (first compound 0.05 µM) it was 0.682; in test [1] (first compound 0.1581 µM) it was 0.764. Also, the relative viability in test [1] (first compound 0.5 µM) was 0.645.
In the case of ABC-1, the relative viability with NVP-TAE684 + AZD7762 (first compound 0.2 µM) was found to be 0.917; with NVP-TAE684 + AZD7762 (first compound 0.6325 µM) it was 0.524; with NVP-TAE684 + AZD7762 (first compound 2 µM), 0.472; in the test with CUDC-101 + Decitabine (first compound 0.01 µM) it was 0.989; with CUDC-101 + Decitabine (first compound 0.03162 µM), 0.92; in the test with CUDC-101 + Decitabine (first compound 0.1 µM), 0.992. Further, the relative viability with CUDC-101 + Decitabine (first compound 0.3162 µM) is 0.985; with CUDC-101 + Decitabine (first compound 1 µM), 1.03; with NVP-TAE684 + Vorinostat (first compound 0.6325 µM) it was 1.01; with NVP-TAE684 + Vorinostat (first compound 2 µM), 0.527; in test [1] (first compound 0.005 µM), 0.913; in test [1] (first compound 0.01581 µM) it was 0.809. Moreover, the results for the relative viability in test [1] (first compound 0.05 µM), in test [1] (first compound 0.1581 µM) and in test [1] (first compound 0.5 µM) were 0.789, 0.921 and 0.848, respectively.
As for BEN, the relative viability is 0.794 with NVP-TAE684 + AZD7762 (first compound 0.2 µM); 0.615 in the test with NVP-TAE684 + AZD7762 (first compound 0.6325 µM); 0.6 with NVP-TAE684 + AZD7762 (first compound 2 µM); 0.983 with NVP-TAE684 + Trametinib (first compound 0.2 µM); 0.912 in the test with NVP-TAE684 + Trametinib (first compound 0.6325 µM); 0.724 with CUDC-101 + Decitabine (first compound 0.01 µM). The relative viability with CUDC-101 + Decitabine (first compound 0.03162 µM) stood at 0.656; with CUDC-101 + Decitabine (first compound 0.1 µM), 0.709; in the test with CUDC-101 + Decitabine (first compound 0.3162 µM), 0.649; with CUDC-101 + Decitabine (first compound 1 µM), 0.498; in the test with NVP-TAE684 + Vorinostat (first compound 0.2 µM) it was 0.547; in the test with NVP-TAE684 + Vorinostat (first compound 0.6325 µM), 0.524. Further, the relative viability with NVP-TAE684 + Vorinostat (first compound 2 µM) was 0.419; in test [1] (first compound 0.005 µM), 0.759; in test [1] (first compound 0.01581 µM), 0.609; in test [1] (first compound 0.05 µM), 0.689; in test [1] (first compound 0.1581 µM), 0.85; in test [1] (first compound 0.5 µM), 0.774.
With CAL-12T, the relative viability in the test with NVP-TAE684 + AZD7762 (first compound 0.2 µM) came to 0.741; with NVP-TAE684 + AZD7762 (first compound 0.6325 µM) it was 0.492; in the test with NVP-TAE684 + AZD7762 (first compound 2 µM), 0.418; with NVP-TAE684 + Trametinib (first compound 0.2 µM) it was 0.283; in the test with NVP-TAE684 + Trametinib (first compound 0.6325 µM) it was 0.251; with NVP-TAE684 + Trametinib (first compound 2 µM), 0.127. For the same cell line, the relative viability amounted to 0.786 with NVP-TAE684 + Vorinostat (first compound 0.2 µM); 0.615 with NVP-TAE684 + Vorinostat (first compound 0.6325 µM); 0.245 in the test with NVP-TAE684 + Vorinostat (first compound 2 µM); 0.571 in test [1] (first compound 0.005 µM); 0.575 in test [1] (first compound 0.01581 µM); 0.628 in test [1] (first compound 0.05 µM). The values for the relative viability in test [1] (first compound 0.1581 µM) and in test [1] (first compound 0.5 µM) were 0.608 and 0.543, respectively.
Regarding COR-L23, the relative viability with NVP-TAE684 + Trametinib (first compound 0.2 µM) stood at 0.547; in the test with NVP-TAE684 + Trametinib (first compound 0.6325 µM) it was 0.484; with NVP-TAE684 + Trametinib (first compound 2 µM), 0.222; with CUDC-101 + Decitabine (first compound 0.01 µM), 0.432; with CUDC-101 + Decitabine (first compound 0.03162 µM), 0.383; with CUDC-101 + Decitabine (first compound 0.1 µM), 0.332. For the same cell line, the relative viability in the test with CUDC-101 + Decitabine (first compound 0.3162 µM) amounted to 0.376; with CUDC-101 + Decitabine (first compound 1 µM), 0.164; in the test with NVP-TAE684 + Vorinostat (first compound 0.2 µM), 0.413; in the test with NVP-TAE684 + Vorinostat (first compound 0.6325 µM) it was 0.397; with NVP-TAE684 + Vorinostat (first compound 2 µM), 0.101.
With COR-L 105, the relative viability with NVP-TAE684 + Trametinib (first compound 0.2 µM) was 0.439; in the test with NVP-TAE684 + Trametinib (first compound 0.6325 µM) it was 0.42; with NVP-TAE684 + Trametinib (first compound 2 µM) it was 0.313; with CUDC-101 + Decitabine (first compound 0.01 µM), 0.67; with CUDC-101 + Decitabine (first compound 0.03162 µM), 0.752; in the test with CUDC-101 + Decitabine (first compound 0.1 µM), 0.622. The relative viability with CUDC-101 + Decitabine (first compound 0.3162 µM) was found to be 0.723; with CUDC-101 + Decitabine (first compound 1 µM), 0.351; with NVP-TAE684 + Vorinostat (first compound 0.6325 µM) it was 0.78; with NVP-TAE684 + Vorinostat (first compound 2 µM), 0.509.
ChaGo-K-1: the relative viability came out at 1.02 with NVP-TAE684 + AZD7762 (first compound 0.2 µM); 0.836 with NVP-TAE684 + AZD7762 (first compound 0.6325 µM); 0.899 with NVP-TAE684 + Trametinib (first compound 0.2 µM); 0.843 in the test with NVP-TAE684 + Trametinib (first compound 0.6325 µM); 0.58 with NVP-TAE684 + Trametinib (first compound 2 µM); 0.558 in the test with CUDC-101 + Decitabine (first compound 0.01 µM). For the same cell line, the relative viability with CUDC-101 + Decitabine (first compound 0.03162 µM) turned out to be 0.47; in the test with CUDC-101 + Decitabine (first compound 0.1 µM) it was 0.555; in the test with CUDC-101 + Decitabine (first compound 0.3162 µM) it was 0.505; in the test with CUDC-101 + Decitabine (first compound 1 µM) it was 0.492; with NVP-TAE684 + Vorinostat (first compound 0.2 µM) it was 0.786; in the test with NVP-TAE684 + Vorinostat (first compound 0.6325 µM), 0.691. The relative viability was 0.518 with NVP-TAE684 + Vorinostat (first compound 2 µM); 0.781 in test [1] (first compound 0.005 µM); 0.886 in test [1] (first compound 0.01581 µM); 0.911 in test [1] (first compound 0.05 µM); 0.884 in test [1] (first compound 0.1581 µM); 0.764 in test [1] (first compound 0.5 µM).
Turning to EKVX, the relative viability in the test with NVP-TAE684 + AZD7762 (first compound 0.2 µM) stood at 0.634; in the test with NVP-TAE684 + AZD7762 (first compound 0.6325 µM), 0.677; with NVP-TAE684 + AZD7762 (first compound 2 µM), 0.375; with NVP-TAE684 + Trametinib (first compound 0.2 µM) it was 0.285; with NVP-TAE684 + Trametinib (first compound 0.6325 µM) it was 0.241; with NVP-TAE684 + Trametinib (first compound 2 µM) it was 0.334. Moreover, the relative viability with CUDC-101 + Decitabine (first compound 0.01 µM) was 0.322; with CUDC-101 + Decitabine (first compound 0.03162 µM), 0.446; with CUDC-101 + Decitabine (first compound 0.1 µM), 0.33; with CUDC-101 + Decitabine (first compound 0.3162 µM) it was 0.323; with CUDC-101 + Decitabine (first compound 1 µM) it was 0.299; with NVP-TAE684 + Vorinostat (first compound 0.2 µM) it was 0.677. Also, the relative viability is 0.699 with NVP-TAE684 + Vorinostat (first compound 0.6325 µM); 0.373 with NVP-TAE684 + Vorinostat (first compound 2 µM); 0.704 in test [1] (first compound 0.005 µM); 0.777 in test [1] (first compound 0.01581 µM); 0.682 in test [1] (first compound 0.05 µM); 0.85 in test [1] (first compound 0.1581 µM). The relative viability in test [1] (first compound 0.5 µM) worked out at 0.604.
